From patent US20050182119A1, “Substituted pyrazoline derivatives” (priority 2004, published 2005) come the findings set out here.

The structures appear in SMILES notation.

One data set has as its target T1, COX-2 (Homo sapiens, UniProt P35354).
T1 sequence (P35354 18-604): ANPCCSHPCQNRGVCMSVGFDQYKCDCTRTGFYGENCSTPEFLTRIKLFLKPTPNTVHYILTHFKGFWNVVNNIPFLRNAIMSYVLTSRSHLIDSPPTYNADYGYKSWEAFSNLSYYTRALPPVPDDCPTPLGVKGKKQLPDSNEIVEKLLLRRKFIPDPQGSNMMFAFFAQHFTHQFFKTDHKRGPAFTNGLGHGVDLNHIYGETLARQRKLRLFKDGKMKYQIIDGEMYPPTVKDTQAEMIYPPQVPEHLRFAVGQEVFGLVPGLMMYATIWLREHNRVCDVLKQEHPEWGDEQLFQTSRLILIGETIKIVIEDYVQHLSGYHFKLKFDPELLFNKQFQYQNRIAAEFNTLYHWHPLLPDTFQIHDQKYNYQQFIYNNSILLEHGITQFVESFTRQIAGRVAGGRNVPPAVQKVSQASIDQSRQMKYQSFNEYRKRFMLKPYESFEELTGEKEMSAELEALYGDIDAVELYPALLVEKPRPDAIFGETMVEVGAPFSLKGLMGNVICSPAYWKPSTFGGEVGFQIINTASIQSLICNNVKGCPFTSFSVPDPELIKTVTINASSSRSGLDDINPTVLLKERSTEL
Nature of the data set: Inhibition of enzyme COX-2. Format: biochemical.

A further data set has as its target COX-1 (Homo sapiens, UniProt P23219). Put plainly: Inhibition of enzyme COX-1. Format: biochemical.
In data set [1] the test system is PC3 human prostata tumor cell line. Put plainly: XTT cell viability (antitumoral activity), PC3. Format: cell-based. As to conditions: incubation time (4 h or 60 h) not stated, read-out: CI50 (μM) prostata PC3. As to the method:
(§1) The antitumor activity of inventive compounds was evaluated measuring cell metabolic capacity (viability), using the XTT kit and following the recommendations of the manufacturer (Roche Diagnostics). The assays were carried out a minimum of five times, with controls containing unexposed cells, cells with vehicle, or media plus compound. Cells were seeded into 96-well plates in 100 μl of media and incubated for 24 h. Afterwards, the inventive compounds were added at different combination of concentrations (from 1 μM to 80 μM) for 4 h (short time XTT) or 60 h (long time XTT). At the end of the incubation period, 50 μl of a mixture containing XTT and electron coupling reagent to each well were added. After 4 h of incubation at 37° C. the absorbance at 490 nm was noted. The growth inhibitory activity of each compound, was obtained subtracting the absorbance of the blanks and expressed as percentage of cell growth inhibition, as compared with untreated controls. The inhibitory concentration 50 (IC50) was determined from the dose-response curves of compound concentration versus percentage of cell viability with the Hill sigmoidal equation (three parameters), using Sigmaplot 5.0 software.

Data set [2] has as its system NC59 human colon tumor cell line. Nature of the data set: XTT cell viability (antitumoral activity), NC59. Format: cell-based. As to conditions: incubation time (4 h or 60 h) not stated, read-out: CI50 (μM) colon NC59. On the procedure:
as §1
On the technique in general: Tetrazolium dyes change colour on reduction, which living cells bring about.

Data set [3] concerns HCA7 human colon tumor cell line. Put plainly: XTT cell viability (antitumoral activity), HCA7. Format: cell-based. Particulars: HCA-7, incubation time (4 h or 60 h) not stated, read-out: CI50 (μM) colon HCA7. On the procedure:
as §1

Data set [4] has as its system HT29 human colon tumor cell line. Nature of the data set: XTT cell viability (antitumoral activity), HT29. Format: cell-based. Particulars: HT-29, incubation time (4 h or 60 h) not stated, read-out: CI50 (μM) colon HT29. On the procedure: as §1

COX-1, sequence (P23219 24-599): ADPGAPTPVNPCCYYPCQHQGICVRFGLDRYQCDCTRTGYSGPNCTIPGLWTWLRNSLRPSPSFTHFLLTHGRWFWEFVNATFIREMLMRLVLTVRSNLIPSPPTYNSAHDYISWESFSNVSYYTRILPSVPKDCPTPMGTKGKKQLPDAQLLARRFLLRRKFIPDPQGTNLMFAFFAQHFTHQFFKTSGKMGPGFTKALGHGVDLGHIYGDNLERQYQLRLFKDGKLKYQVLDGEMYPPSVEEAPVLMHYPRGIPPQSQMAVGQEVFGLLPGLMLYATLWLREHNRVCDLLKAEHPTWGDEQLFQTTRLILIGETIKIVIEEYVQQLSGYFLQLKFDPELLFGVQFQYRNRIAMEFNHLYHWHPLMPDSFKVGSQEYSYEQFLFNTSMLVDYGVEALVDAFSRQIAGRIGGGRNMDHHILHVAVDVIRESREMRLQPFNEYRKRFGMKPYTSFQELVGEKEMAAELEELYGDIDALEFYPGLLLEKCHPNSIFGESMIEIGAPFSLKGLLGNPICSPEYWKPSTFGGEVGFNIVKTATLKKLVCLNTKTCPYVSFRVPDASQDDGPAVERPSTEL

Usually melting point stands for the temperature, or range, at which the solid turns liquid. On to `NS(=O)(=O)c1ccc(N2N=C(C(F)(F)F)CC2c2cc(C(F)(F)F)cc(C(F)(F)F)c2)cc1` (stereo not drawn) [Example 2, 4-[5-(3,5-bis-trifluoromethyl-phenyl)-3-trifluoromethyl-4,5-dihydro-pyrazol-1-yl]-benzenesulfonamide], for which the melting point was in the range of 195 to 197 °C. Besides, the “inhibiting activity of enzyme COX-2” value against COX-2 is “do not display any inhibiting activity”. The “inhibiting activity of enzyme COX-1” value against COX-1 was “do not display any inhibiting activity”. In addition, the IC50 in data set [1] worked out at 10.6 µM.

Consider `Cc1ccc(-c2cc(C(F)(F)F)nn2-c2ccc(S(N)(=O)=O)cc2)cc1` [Celecoxib, reference compound], for which the IC50 came to 18.2 µM in data set [2], 26.5 µM in data set [3], 21.5 µM in data set [4] and 30.6 µM in data set [1].

Molecule `Cc1ccc(C)c(C2CC(C(F)(F)F)=NN2c2ccc(S(N)(=O)=O)cc2)c1` (stereo not drawn) [Example 1, 4-[5-(2,5-dimethyl-phenyl)-3-trifluoromethyl-4,5-dihydro-pyrazol-1-yl]-benzenesulfonamide] gave a melting point of 200 to 202 °C. Further, the “inhibiting activity of enzyme COX-2” value against COX-2 is listed as “do not display any inhibiting activity”. In addition, in data set [2], the IC50 came to 16.3 µM. Further, the IC50 in data set [3] was found to be 10.5 µM. The IC50 in data set [4] worked out at 14.9 µM. The “inhibiting activity of enzyme COX-1” value against COX-1 is recorded as “do not display any inhibiting activity”. In data set [1], the IC50 is 12.3 µM.
